These results are taken from PubChem BioAssay (NCI).

Common to all, as to test: NCI-60 cell line screen, 48 h
The subject of assay [1] is SK-MEL-28 melanoma.
Assay [2] deals with TK-10 renal.
Assay [3] concerns SK-MEL-5 melanoma.
For assay [4], the system named is A549 NSCLC.
Assay [5] deals with SN12C renal.
In assay [6] the test system is HCT-116 colon.
Assay [7] concerns LOX IMVI melanoma.
Assay [8] deals with SK-OV-3 ovarian.
The subject of assay [9] is SNB-75 CNS.
Assay [10] relates to UACC-62 melanoma.

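Compound exposure: 48 hours, 5 concentrations, 96-well plates. GI50 is the concentration that inhibits growth by half. TGI denotes the concentration required for complete inhibition of growth.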

On to `C=C1C(=O)O[C@H]2[C@H]1CC/C(COC(=O)NCc1c[nH]c3ccc(Cl)cc13)=C\CC[C@@]1(C)O[C@@H]21`, for which the GI50 in assay [1] is 1.69 µM; in assay [2], 1.61 µM; in assay [3] it was 1.64 µM; in assay [4], 1.7 µM; in [5], 1.37 µM; in assay [6], 1.27 µM. Moreover, the GI50 in assay [7] was 0.633 µM; in [8], 5.75 µM; in [9], 1.29 µM; in [10], 1.34 µM. Moreover, the TGI in assay [1] was found to be 3.29 µM; in [2], 2.98 µM; in [3], 3.01 µM; in assay [4], 3.43 µM; in assay [5], 3 µM; in assay [6], 2.61 µM. Further, the TGI in [7] is 2.03 µM; in assay [8], 18.9 µM; in assay [9], 2.57 µM; in [10] it was 2.76 µM.
For the compound `CC1OC(OCC2COC(O)(Oc3c(-c4ccc(O)c(O)c4)oc4cc(O)cc(O)c4c3=O)C(O)C2O)C(O)C(O)C1O` (stereo not given), the TGI in [1], in assay [2], in assay [3], in assay [4], in assay [5] and in assay [6] was over 100 µM throughout. In addition, the TGI in assay [7], in assay [8], in assay [9] and in [10] was over 100 µM in each case.
Take `Cc1nc(NC(=O)CCCN2C(=O)c3cccc4cccc(c34)C2=O)sc1C(=O)Nc1cc(C(=O)NCCCN(C)C)n(C)c1`: the GI50 in [1], in [2], in [3], in assay [4], in assay [5] and in assay [6] was over 100 µM throughout. Besides, the GI50 in [7], in [8], in assay [9] and in assay [10] was over 100 µM throughout. The TGI in [1], in assay [2], in assay [3], in assay [4], in assay [5] and in [6] was over 100 µM throughout. Besides, the TGI in assay [7], in assay [8], in [9] and in assay [10] was over 100 µM throughout.
For `Cc1ccc(Cl)c(NC(=O)C(=O)C(C(=O)c2ccncc2)C2OC(=O)c3ccccc32)c1` (stereo not given), the TGI in assay [1], in assay [2], in assay [3], in assay [4], in [5] and in assay [6] was over 100 µM in each case. Moreover, the TGI in assay [7], in assay [8], in assay [9] and in assay [10] was over 100 µM throughout.
As for `Cc1ccc(C)c(-c2csc(Nc3ccc(C)c(C)c3)n2)c1`, the GI50 in assay [1], in assay [2], in assay [3], in [4], in [5] and in [6] was over 100 µM throughout. In addition, the GI50 is over 100 µM in assay [7], over 100 µM in assay [8], 15.8 µM in assay [9] and over 100 µM in assay [10]. Also, the TGI in assay [1], in assay [2], in assay [3], in assay [4], in assay [5] and in [6] was over 100 µM throughout. The TGI in assay [7] is over 100 µM; in assay [8] it was over 100 µM; in assay [9], 53.2 µM; in assay [10] it was over 100 µM.
`COc1ccc(NC(=O)c2sc3nc(C)c(C(O)c4ccccc4)cc3c2N)cc1` (stereo not given): the GI50 in [1] was 6.93 µM; in [2] it was 5.39 µM; in [3], 1.66 µM; in assay [4] it was 0.7 µM; in assay [5], 3.36 µM; in assay [6], 2.71 µM. The GI50 in assay [7] is 4.25 µM; in [8], 4.59 µM; in [9] it was 1.49 µM; in assay [10], 2.93 µM. Also, the TGI in assay [1] is over 100 µM; in [2], over 100 µM; in assay [3], 4.04 µM; in assay [4], over 100 µM; in assay [5], over 100 µM; in assay [6] it was over 100 µM. Besides, the TGI in assay [7] is over 100 µM; in assay [8], over 100 µM; in assay [9], 7.22 µM; in [10], over 100 µM.
As to `c1ccc(CN(Cn2cccn2)Cn2cccn2)nc1`, the TGI in assay [1], in assay [2], in assay [3], in assay [4], in [5] and in assay [6] was over 100 µM each time. Besides, the TGI in [7], in assay [8], in [9] and in [10] was over 100 µM throughout.
Consider `Cc1cc(Cl)cc2c1NC(=O)C2(O)C(C)C(=O)c1ccc(Cl)cc1` (stereo not given), for which the TGI was over 100 µM in assay [1]; over 100 µM in assay [2]; over 64.7 µM in assay [3]; over 100 µM in [4]; over 100 µM in [5]; over 100 µM in assay [6]. Moreover, the TGI is over 100 µM in assay [7], over 100 µM in assay [8], over 100 µM in assay [9] and 44 µM in [10].
Take `COc1ccc2nc3ccccc3c(NCCCCCCN(C)CCCl)c2c1`: the TGI in [1] worked out at 2.26 µM; in [2], 4.91 µM; in assay [3] it was 2.16 µM; in assay [4], 3.34 µM; in assay [5] it was 1.75 µM; in [6], 1.22 µM. Also, the TGI in [7] came to 0.515 µM; in assay [8], 2.04 µM; in [9], 2.73 µM; in assay [10] it was 1.61 µM.
